Experimental data reported in patent US20120156146A1, “Compositions and Methods for Improving the Appearance of Facial Texture” (priority 2010, published 2012).

Assays:
[1] = system: HAS-2 gene (Hyaluronic Acid Synthase-2 gene); assay: Hyaluronic Acid (HA) Synthase expression, GeneChip microarray in keratinocyte culture; format: cell-based; details: human telomerized keratinocytes, 10 micro molar, 6 hours exposure, six Affymetrix GeneChips, p-value=0.0366
Protocol: Individual experiments (referred to as batches) are generally comprised of 60 Affymetrix GeneChips® (referred to as “instances”) containing 6 vehicle control samples, 2 positive control samples and 52 individual test material samples. Duplication of test materials is performed across batches. In vitro testing is performed in 6-well plates to provide sufficient RNA for GeneChip® analysis (2-4 ug total RNA yield/well). Human telomerized keratinocytes are grown in EpiLife® media with 1× Human Keratinocyte Growth Supplement (Invitrogen) on collagen I coated cell culture flasks and plates (Becton Dickinson). Cells are seeded into 6-well plates at 20,000 cells/cm2 24 hours before chemical exposure. At t=−24 hours cells are trypsinized from T-75 flasks and plated into 6-well plates in basal growth medium. At t=0 media is removed and replaced with the appropriate dosing solution as per the experimental design. Dosing solutions are prepared the previous day in sterile 4 ml Falcon snap cap tubes. After 6 hours of chemical exposure cells are viewed and imaged. Cells are then lysed with 350 ul/well of RLT buffer containing β-mercaptoethanol (Qiagen), transferred to a 96-well plate, and stored at −20° C. […]
Data quality was determined using a variety of statistical measures, including t-tests, scatter biplots, and principal components analysis, depending upon the source and character of the data. […]

[2] = system: textured facial skin (upper cheek area); assay: In vivo facial texture test (Texture Area Fraction, split face, vehicle controlled); parameters: species or system human; details: vehicle+5% Hexyldecanol, 0.5 g per side of face twice daily, topical, 8 weeks, 330 subjects
Protocol: A 9 week in vivo study was conducted using a round robin, vehicle controlled, split face design including a 1 week normalization period with 330 subjects.
Treatment Regimen—The regimen begins with a one week washout period. […]
Images of the facial treatment sites are captured at baseline (week 0), and after 4 and 8 weeks of treatment and analyzed for changes to facial texture. […]
The region of interest (ROI), in this case the upper cheek area, was marked manually based on 12 predefined facial landmarks around the cheek—for example, corners of the eye, bridge of the nose, corners of the mouth. The degree of textured skin in the ROI were quantified objectively using image analysis algorithms based on an Optimus software platform, which automatically locates each surface feature and quantifies the total number, length and area of facial features shorter than 5 mm and less than 0.16 mm wide, known magnification used to convert pixel data to actual length and area data. […]

## CCCCCCCCC(CO)CCCCCC (centres unmarked) [Hexyldecanol, 2-hexyldecan-1-ol]
[1]
  average fold change of transcriptional expression level of HAS-2 probe set IDs: 1.336 fold change
[2]
  Texture Area Fraction reduction versus vehicle control: significantly (p<=0.10) reducing Texture Area Fraction better than the control
